Assay [1] addresses JAK2 (Homo sapiens, UniProt O60674). Nature of the assay: Human whole blood assay: pSTAT5 (JAK2) in monocytes. To be noted: HWB, GM-CSF stimulated, CD4Low CD33Hi monocytes; n=3. Also on record: endogenous in cells; host or cells: human whole blood, CD4Low CD33Hi monocytes. In kind it is cell-based. From the text:
Human Whole Blood Assays: Determination of pSTAT3 (JAK1) and pSTAT5 (JAK2) in Lymphocytes and Monocytes
Human whole blood (HWB) assays were developed and validated to determine the JAK1 and JAK2 selectivity of test compounds.
Dilute the test compounds, 10 points, (1:3) in DMSO 100% and a step down in PBS+0.1% BSA. Use tofacitinib as a reference compound in each plate, as well as a maximum signal (stimulated wells) and a minimum signal (no stimulated wells) in order to normalize data. Obtain a pool of HWB from 4 different healthy donors. Plate the blood in a 96 well plate using a Tecan Evo 96w and incubate with test compounds for 1 h at RT. After this time of incubation, stimulate HWB with both IL6 (206-IL, R&D System) and GM-CSF (PHC2015, Life Technologies) for 15 more minutes. […]
The final concentrations in the assay are the following: 100 μM for compounds, 50 μM for tofacitinib, 0.1 μg/mL IL6, 0.038 μg/mL GM-CSF and 1% DMSO. […] Incubate the antibodies for 1 h in dark at RT, then wash cells 2× and read on Cytometer Macsquant (Miltenyi Biotec). Gate the data on CD4+(lymphocytes) and CD4Low CD33Hi (monocytes), to measure the fluorescence from cells expressing pSTAT3 and pSTAT5 respectively. Analyze the data using FlowJo v_10 and the normalize the median of fluorescence versus maximum and minimum signal to determine the IC50s. […]

The test system of assay [2] is pSTAT3 expression in the H1975 xenograft. Put plainly: pSTAT3 Rat IVTI (JAK1) Assay, H1975 xenograft. The assay is classed as in vivo. The conditions noted are these: single oral dose, two hours, n=1. How it is done: pSTAT3 Rat IVTI (JAK1) Assay
The purpose of this assay is to measure the ability of test compounds to inhibit the pSTAT3 expression in the H1975 xenograft rat model. Grow H1975 cells according to ATCC specifications at the lowest possible passage number available. Culture and maintain cells in RPMI-1640 supplemented with 10% FBS and incubated at 37° C. in 5% CO2. Harvest cells by standard techniques and mix with BD Biosciences basement membrane matrix (MATRIGEL®) to achieve a 1:1 cell/matrix ratio yielding an inoculation volume of 0.2 mL cell/matrix suspension containing 2e6 cells. Keep cell suspensions on ice throughout the inoculation procedure and start implantations within one hour after cell culture harvest. […] Time course studies are a single dose administered at the TED70 determined from the dose response study. […]
Harvest and cut tumors to yield approximately 200-250 mm^3 size fragments and immediately drop into a 12×75 mm tube containing 1 mL of ice cold MSD Tris Lysis buffer (Meso Scale Discovery cat# R60TX-2) and 1×HALT (Thermo Scientific product #1861281). […] Cool plate to RT and measure absorbance at or near 562 nm on Molecular Devices Spectra Max. Protein concentrations for each sample are determined using SoftMax Pro 6.3 software program. After tumor samples are quantitated, freeze at −80° C. in the 96 well polypropylene plate and assay at a later date. […]

A word on the IC50: it is the concentration needed to halve the response being measured. Lower therefore signals greater potency in that assay.

JAK2, sequence (O60674 whole entry): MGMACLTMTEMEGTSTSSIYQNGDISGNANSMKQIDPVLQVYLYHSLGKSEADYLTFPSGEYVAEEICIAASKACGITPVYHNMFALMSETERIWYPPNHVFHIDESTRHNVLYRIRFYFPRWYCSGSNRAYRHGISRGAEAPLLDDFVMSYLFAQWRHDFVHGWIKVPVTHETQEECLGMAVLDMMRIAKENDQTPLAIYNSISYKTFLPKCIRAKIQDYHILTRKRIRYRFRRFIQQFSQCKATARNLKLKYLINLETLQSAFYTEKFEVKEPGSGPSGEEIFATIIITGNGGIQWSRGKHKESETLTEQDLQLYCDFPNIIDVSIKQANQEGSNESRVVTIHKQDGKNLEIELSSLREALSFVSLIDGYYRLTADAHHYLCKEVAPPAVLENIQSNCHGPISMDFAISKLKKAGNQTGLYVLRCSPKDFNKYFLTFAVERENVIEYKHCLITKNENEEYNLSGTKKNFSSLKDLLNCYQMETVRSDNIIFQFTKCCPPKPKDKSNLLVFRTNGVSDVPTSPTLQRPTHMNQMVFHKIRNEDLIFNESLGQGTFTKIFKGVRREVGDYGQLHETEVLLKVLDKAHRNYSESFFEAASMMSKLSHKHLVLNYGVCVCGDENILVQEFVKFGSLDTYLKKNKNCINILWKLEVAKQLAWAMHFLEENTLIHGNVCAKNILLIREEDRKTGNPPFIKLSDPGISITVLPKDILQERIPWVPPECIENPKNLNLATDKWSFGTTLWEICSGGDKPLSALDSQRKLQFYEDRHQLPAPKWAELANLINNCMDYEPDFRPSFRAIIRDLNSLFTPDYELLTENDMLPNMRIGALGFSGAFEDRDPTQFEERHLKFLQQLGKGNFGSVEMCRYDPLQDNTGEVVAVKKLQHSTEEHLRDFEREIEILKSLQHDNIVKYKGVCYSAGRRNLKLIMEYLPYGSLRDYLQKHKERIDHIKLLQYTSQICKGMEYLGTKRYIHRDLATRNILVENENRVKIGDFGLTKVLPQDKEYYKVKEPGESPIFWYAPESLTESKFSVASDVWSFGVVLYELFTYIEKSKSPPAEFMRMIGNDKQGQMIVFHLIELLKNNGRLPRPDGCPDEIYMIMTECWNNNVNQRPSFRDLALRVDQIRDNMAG

In turn, `Cc1cc(Nc2cc(O[C@H]3CC[C@@H](NC[C@@H](O)C(F)(F)F)CC3)cc3c2ncn3C)nn1C` [Example 1, (2R)-3-{[cis-4-({4-[(1,5-Dimethyl-1H-pyrazol-3-yl)amino]-1-methyl-1H-benzimidazol-6-yl}oxy)cyclohexyl]amino}-1,1,1-trifluoropropan-2-ol] showed an IC50 in assay [1] of 13 ± 3.2 µM. In assay [2], the “TEC50 (plasma concentration required to achieve 50% pSTAT3 inhibition)” value is on record as 3.9 μM and the “TED50 (dose necessary to achieve 50% pSTAT3 inhibition)” value stood at 9 mg/kg.
